Test results reported in patent US9161930B2, “Pharmaceutical composition for diabetic nephropathy and its preparation and application” (Guangzhou Consun Medicine R & D Co., Ltd., priority 2009, dated 2015).

How the values were obtained:
[1] = tested on: TGFβ-1; assay: TGFβ-1 expression of rat mesangial cells induced by AGEs (immunocytochemistry staining); assay type: cell-based; conditions: 48 h, FIG. 1
Protocol: Put the coverslips pre-treated by poly-L-lysine into 24-well cell culture plates, in order to make the HBZY-1 cells grow on until synchronization. Discard of the supernatant, add 800 μl DMEM medium, 100 μl AGEs (final concentration is 0.25 mg/ml) in each medicine group, then add 100 μl water extract of Cortex Mori (final concentration is 0.1 g/L) or DPMC (final concentration is 0.5, 5, 25 or 125 nM/L). The normal control group is added 1 ml DEME medium when the AGEs group is added 900 μl DMEM medium and 100 μl AGEs (final concentration was 0.25 mg/ml). Every group repeats for 6 times. Then, all the groups are incubated under 5% CO2 incubator at 37° C. for 48 h. Take suction of the cell supernatant for the content determination of hydroxyproline after the cells completely covered the coverslips and take out of the coverslips for immunocytochemistry staining. […]

[2] = tested on: Rat messangial cell line HBZY-1; assay: Hydroxyproline content in supernatant of rat mesangial cells induced by AGEs; assay type: cell-based; conditions: AGEs 0.25 mg/ml, 48 h, supernatant of HBZY-1 cells
Protocol: Dissolved the 5% bovine serum albumin (BSA) without globulin and 0.5 mol/L D-amylaceum in 0.2 mol/L phosphate buffered solution (PBS, PH=7.2), filtrated with 0.24 μm micropore film and incubated under 37° C. for 60 days. After the incubation of the advanced glycation end products (AGEs) were finished, the umcombinated material was cleaned by extend dialyse method. Diluted to a necessary concentration and filtrated with 0.22 μm micropore film.
Prepare of unicell suspension with HBZY-1 cells in log phase growth and DMEM medium with 5% newborn calf serum, take 100 μl/well (cell quantities: 1×10^4/well) to the 96-well plate, incubated under 5% CO2 incubator at 37° C. for 24 hours, change with 100 μl the DMEM without serum and incubate another 24 hours to make the cells to anestrum (synchronization). Discard of the supernatant, add 90 μl DMEM medium with 5% newborn calf serum and 10 μl the different concentration of AGEs by gradient dilution with 6 repeat per group, incubate by gradient time, respectively, determinate the proliferation degree of rat mesangial cells by MTT.
Put the coverslips pre-treated by poly-L-lysine into 24-well cell culture plates, in order to make the HBZY-1 cells grow on until synchronization. Discard of the supernatant, add 800 μl DMEM medium, 100 μl AGEs (final concentration is 0.25 mg/ml) in each medicine group, then add 100 μl water extract of Cortex Mori (final concentration is 0.1 g/L) or DPMC (final concentration is 0.5, 5, 25 or 125 nM/L). The normal control group is added 1 ml DEME medium when the AGEs group is added 900 μl DMEM medium and 100 μl AGEs (final concentration was 0.25 mg/ml). Every group repeats for 6 times. Then, all the groups are incubated under 5% CO2 incubator at 37° C. for 48 h. Take suction of the cell supernatant for the content determination of hydroxyproline after the cells completely covered the coverslips and take out of the coverslips for immunocytochemistry staining.
Determinate the hydroxyproline content in cultured fluid of rat mesangial cells and express as x±s, analyze by t-test; observate the TGFβ-1 expression in immunohistochemistry photo of rat mesangial cells under microscope.

[3] = tested on: STZ diabetic nephropathy model rat; assay: Serum biochemical indicators in rat of diabetic nephropathy (STZ); assay type: in vivo, Wistar rat; conditions: 14 weeks
Protocol: (§1) Model by administrating of low dose STZ for several times and determinate as the model rat of diabetic nephropathy, divide into 6 groups with 10 mice/group: model group, positive drug control group (aminoguanidine, 100 mg/kg), water extract of Cortex Mori group, 3 different concentration doses of DPMC group (high dose group: 4 mg/kg; middle dose group: 2 mg/kg; low dose: 1 mg/kg), normal control group.
(§2) Each group is given the same volume corresponding drug in different concentration or physiological saline everyday by intragastric administration for 14 weeks.
(§3) Collect the 24 hour urine after administration is over, calculate the urine volume and determinate the content of total protein of urine, micro-albumen and urine creatinine; obtain blood by eye sockets and determinate the biochemical indicator with automatic biochemistry analyzer; take out of the double kidneys, fix with formalin and remain to histopathologic examination.
(§4) Statistical analysis of all determinations is calculated by interclass t-test and expressed as x±s.

[4] = tested on: STZ diabetic nephropathy model rat; assay: Pathohistology (pathology score) of rat glomcrulus in model of diabetic nephropathy; assay type: in vivo, Wistar rat; conditions: 14 weeks
Protocol: as §1, §2, §3, §4

[5] = tested on: STZ diabetic nephropathy model rat; assay: 24 hour urine indicators in rat model of diabetic nephropathy induced by STZ; assay type: in vivo, Wistar rat; conditions: 14 weeks; for Total protein (mg) of urine / micro-albumen / urine creatinine: 24 hour urine
Protocol: as §1, §2, §3, §4

[6] = tested on: CTGF; assay: CTGF expression of rat glomcrulus in model of diabetic nephropathy; assay type: in vivo, Wistar rat; conditions: 14 weeks, STZ rat
Protocol: as §1, §2, §3, §4

[7] = 100 mg/kg intragastric everyday

SMILES: COC(=O)Nc1ccc(Cc2ccc(NC(=O)OC)cc2)cc1 [DPMC, 4,4′-diphenylmethane-bis(methyl) carbamates]
- TGFβ-1 expression of rat mesangial cells induced by AGEs ([1]; different doses 0.5, 5, 25, 125 nM/L): restrain the TGFβ-1 expression increase
- TGFβ-1 expression of rat mesangial cells induced by AGEs ([1]; large dose 125 nM/L): performs best
- hydroxyproline ([2]; 0.5 nM/L): 7.68 ± 1.10 µg/mL
- hydroxyproline ([2]; 5 nM/L): 7.76 ± 1.21 µg/mL
- hydroxyproline ([2]; 25 nM/L): 5.71 ± 1.18 µg/mL
- hydroxyproline ([2]; 125 nM/L): 4.76 ± 0.58 µg/mL
- AGEs ([3]; 1 mg/kg intragastric everyday): 290 ± 59
- BUN ([3]; 1 mg/kg intragastric everyday): 7.0 ± 1.0 mmol/L
- LDL ([3]; 1 mg/kg intragastric everyday): 1.91 ± 0.55 mmol/L
- MDA ([3]; 1 mg/kg intragastric everyday): 7.8 ± 2.3 nmol/L
- SC (umol/L), serum creatinine ([3]; 1 mg/kg intragastric everyday): 91.0 ± 31.1 µmol/L
- SOD (U/ml) ([3]; 1 mg/kg intragastric everyday): 498 ± 33 U/ml
- TG ([3]; 1 mg/kg intragastric everyday): 3.23 ± 0.76 mmol/L
- AGEs ([3]; 2 mg/kg intragastric everyday): 289 ± 56
- BUN ([3]; 2 mg/kg intragastric everyday): 6.6 ± 1.2 mmol/L
- LDL ([3]; 2 mg/kg intragastric everyday): 1.51 ± 0.53 mmol/L
- MDA ([3]; 2 mg/kg intragastric everyday): 6.8 ± 1.9 nmol/L
- SC (umol/L), serum creatinine ([3]; 2 mg/kg intragastric everyday): 76.6 ± 24.5 µmol/L
- SOD (U/ml) ([3]; 2 mg/kg intragastric everyday): 513 ± 41 U/ml
- TG ([3]; 2 mg/kg intragastric everyday): 2.76 ± 0.80 mmol/L
- AGEs ([3]; 4 mg/kg intragastric everyday): 281 ± 78
- BUN ([3]; 4 mg/kg intragastric everyday): 6.5 ± 1.5 mmol/L
- LDL ([3]; 4 mg/kg intragastric everyday): 1.43 ± 0.36 mmol/L
- MDA ([3]; 4 mg/kg intragastric everyday): 6.8 ± 1.3 nmol/L
- SC (umol/L), serum creatinine ([3]; 4 mg/kg intragastric everyday): 74.0 ± 17.1 µmol/L
- SOD (U/ml) ([3]; 4 mg/kg intragastric everyday): 520 ± 29 U/ml
- TG ([3]; 4 mg/kg intragastric everyday): 2.57 ± 0.80 mmol/L
- Pathology score ([4]; 1 mg/kg intragastric everyday): 2.7 ± 1.0
- Pathology score ([4]; 2 mg/kg intragastric everyday): 1.8 ± 1.3
- Pathology score ([4]; 4 mg/kg intragastric everyday): 1.2 ± 1.1
- Urine V (24 hr, ml) ([5]; 1 mg/kg intragastric everyday): 59.9 ± 21.8 mL
- Total protein (mg) of urine ([5]; 1 mg/kg intragastric everyday): 69.1 ± 20.4 mg
- micro-albumen ([5]; 1 mg/kg intragastric everyday): 1.57 ± 0.56 mg
- urine creatinine ([5]; 1 mg/kg intragastric everyday): 1.4 ± 0.6 mmol/L
- Urine V (24 hr, ml) ([5]; 2 mg/kg intragastric everyday): 41.3 ± 16.4 mL
- Total protein (mg) of urine ([5]; 2 mg/kg intragastric everyday): 54.0 ± 17.4 mg
- micro-albumen ([5]; 2 mg/kg intragastric everyday): 0.93 ± 0.55 mg
- urine creatinine ([5]; 2 mg/kg intragastric everyday): 2.9 ± 1.2 mmol/L
- Urine V (24 hr, ml) ([5]; 4 mg/kg intragastric everyday): 33.9 ± 22.2 mL
- Total protein (mg) of urine ([5]; 4 mg/kg intragastric everyday): 46.2 ± 21.6 mg
- micro-albumen ([5]; 4 mg/kg intragastric everyday): 0.92 ± 0.42 mg
- urine creatinine ([5]; 4 mg/kg intragastric everyday): 4.3 ± 2.0 mmol/L
- CTGF(%) ([6]; 1 mg/kg intragastric everyday): 7.1 ± 1.6 %
- CTGF(%) ([6]; 2 mg/kg intragastric everyday): 6.4 ± 2.7 %
- CTGF(%) ([6]; 4 mg/kg intragastric everyday): 6.0 ± 3.1 %

SMILES: N=C(N)NN [aminoguanidine, reference compound]
- AGEs [3, 7]: 283 ± 78
- BUN [3, 7]: 6.6 ± 0.8 mmol/L
- LDL [3, 7]: 2.01 ± 0.58 mmol/L
- MDA [3, 7]: 5.9 ± 1.7 nmol/L
- SC (umol/L), serum creatinine [3, 7]: 77.7 ± 20.3 µmol/L
- SOD (U/ml) [3, 7]: 516 ± 20 U/ml
- TG [3, 7]: 3.35 ± 0.87 mmol/L
- Pathology score [4, 7]: 2.1 ± 1.0
- Urine V (24 hr, ml) [5, 7]: 36.2 ± 21.7 mL
- Total protein (mg) of urine [5, 7]: 43.2 ± 29.9 mg
- micro-albumen [5, 7]: 1.00 ± 0.27 mg
- urine creatinine [5, 7]: 4.0 ± 2.3 mmol/L
- CTGF(%) [6, 7]: 5.9 ± 2.2 %
